We go through five molecules from PMC11993615, “Design, synthesis and optimization of TarO inhibitors as multifunctional antibiotics against Methicillin-resistant Staphylococcus aureus” (npj Antimicrobials and Resistance, 2025).

For one data set, the target named is TarO (Staphylococcus aureus, UniProt Q2G060). Type of data set: cell-based. The following applies: relative inhibition rate against the wild-type strain, OD600 at 20 h; n.a. = IC50 cannot be calculated within the test range.
The nature of data set [1]: Cytotoxicity assay (Sulforhodamine B). Type of data set: cell-based. The following applies: human. As for the experimental part: The cytotoxicity was detected by Sulforhodamine B method. The human pancreatic cancer cell line Capan-1, human colon cancer cell line HCT-116 and human lung adenocarcinoma cell line NCI-H1373 were purchased from American Type Culture Collection (ATCC; Manassas, VA) and inoculated into 96-well plates in triplicate. The cells were treated with different concentrations of compounds in humidified incubator containing 5% CO2 for 72 h when they reached 70%-80% confluence. Vincristine was added as a positive control. Then, SRB staining agent was added and microplate analyzer was used to read the absorbance at 450 nm wavelength. The cytotoxicity of each compound is expressed as the concentration of the compound that reduces cell viability to 50% (IC50). The optical density (OD) at a wavelength of 450 nm was measured using an SpectraMax 190 Microplate Reader (Molecular Devices; USA). The IC50 value was calculated by the Logit method using Graphpad Prism 9.1.

In data set [2] the test system is USA300 LAC. The data set can be described thus: Checkerboard MIC assay with oxacillin. Type of data set: cell-based, Staphylococcus aureus. The following applies: USA300 LAC/oxacillin; for Minimum sensitization concentration: test range 0.03–32 μg/mL. The procedure:
(§1) In the checkerboard assay, concentrations of antibiotics, oxacillin and imipenem, and TarO inhibitors were simultaneously varied across columns and the rows, respectively. […] The range of each compound chosen for the checkerboard assay was according to their MIC value. […] For each clear well observed on the checkerboard MIC plate, the fractional inhibitory concentration index (FICI) was calculated as follows: FICI = FIC (inhibitor) + FIC (antibiotic) = MIC inhibitor in combination/ MIC inhibitor alone + MIC antibiotic in combination/MIC antibiotic alone. FIC = Fractional Inhibitory Concentration. A FICI value of < 0.5 indicates synergy, a value between 0.5 and 2 indicates additivity or indifference, and a value > 2 indicates antagonism.

The subject of data set [3] is USA400 MW2. As to the kind of experiment: Checkerboard MIC assay with oxacillin. The class given is cell-based, Staphylococcus aureus. The following applies: for FICI / Sensitization fold / Maximum sensitization concentration / Minimum sensitization concentration: USA400 MW2/oxacillin; for Maximum sensitization concentration / Minimum sensitization concentration: test range 0.03–32 μg/mL; for MIC of β-lactam, combined: USA400 MW2. The procedure:
as §1

For data set [4], the system named is HS663. As to the kind of experiment: Checkerboard MIC assay with imipenem. The class given is cell-based, Staphylococcus aureus. The following applies: for FICI / Sensitization fold / Maximum sensitization concentration / Minimum sensitization concentration: HS663/imipenem; for Maximum sensitization concentration / Minimum sensitization concentration: test range 0.03–32 μg/mL; for MIC of β-lactam, combined: HS663. The procedure:
as §1

Data set [5] has as its system S.aureus USA300 LAC biofilm. As to the kind of experiment: Static biofilm inhibition assay (crystal violet). The class given is cell-based, Staphylococcus aureus.
Data set [6] in a line: Preliminary liver microsomal stability testing. Type of data set: in vitro ADME, Mouse. The following applies: for Clint In Vitro / Comments (metabolic stability): Mouse liver microsomes; for half-life at 0.1 μM: pH 7.4, Mouse liver microsomes 0.33 mg/mL, 0.1 μM compound. As for the experimental part: 6. Supplementary Ta b l e 3: Preliminary liver microsomal stability testing of Ta r O
Compounds Species T1/2 Clint In Vitro MF […]
a MF: metabolic bioavailability.
Microsomes in 0.1 M TRIS buffer pH 7.4 (final concentration 0.33 mg/mL), co- factor MgCl2 (final concentration 5 mM) and tested compound (final concentration 0.1 μM, co-solvent 0.01% DMSO and 0.005% Bovin serum albumin BSA) were incubated at 37°C for 10 min. The reaction was started by the addition of NADPH (final concentration 1 mM). Aliquots were sampled at 0, 5, 15, 30 and 60 min respectively and methanol (cold in wet ice) was added to terminate the reaction.
After centrifugation (4000rpm,5 min), samples were then analyzed by LC- MS/MS.

For data set [7], the system named is USA300 LAC. As to the kind of experiment: MIC determination, broth microdilution. The following applies: Staphylococcus aureus. For orientation: Dilution methods test growth across graded concentrations, often in twofold steps.
Data set [8] deals with USA400 MW2. The data set can be described thus: MIC determination, broth microdilution. The following applies: Staphylococcus aureus.
In data set [9] the test system is HS663. As to the kind of experiment: MIC determination, broth microdilution. The following applies: Staphylococcus aureus.
The mark [10] stands for this setting: Capan-1 cells (human pancreatic cancer cell line), Capan-1, 72 h.
The mark [11] stands for this setting: HCT-116 cells (human colon cancer cell line), HCT-116, 72 h.
Where [12] appears, read: NCI-H1373 cells (human lung adenocarcinoma cell line), NCI-H1373, 72 h.
Setting [13] is: at maximum sensitization concentration.
[14] abbreviates: at minimum sensitization concentration.
The mark [15] stands for this setting: oxacillin with TarO inhibitor at maximum sensitization concentration.
Where [16] appears, read: oxacillin with TarO inhibitor at minimum sensitization concentration.
[17] abbreviates: imipenem with TarO inhibitor at maximum sensitization concentration.
The mark [18] stands for this setting: imipenem with TarO inhibitor at minimum sensitization concentration.

The term IC50 denotes the point on the concentration scale where inhibition reaches its midpoint. Usually inhibition stands for the change of the read-out against control, counted positive when it falls. Usually half-life stands for how long it takes for the measured level to halve. Read a low half-life as rapid decline. A word on the MIC: it is the least concentration at which growth counts as inhibited. Regarding `C[C@H]1[C@@H](c2cc(C(F)(F)F)cc(C(F)(F)F)c2)OC(=O)N1C(=O)CCN1CCCc2ccccc21` [Compound 10], the IC50 at TarO is 0.14 µM. The IC50 at 72 h in [1] (setting [10]), in [1] (setting [11]) and in data set [1] (setting [12]) was more than 20 µM throughout. Further, the FICI in the data set on USA300 LAC [2] (setting [13]) is less than 0.07; with USA300 LAC [2] (setting [14]) it was less than 0.13; with USA400 MW2 [3] (setting [13]), less than 0.07; in the data set with USA400 MW2 [3] (setting [14]), less than 0.13; in the data set on HS663 [4] (setting [13]) it was less than 0.02; with HS663 [4] (setting [14]) it was less than 0.13. For the same molecule, the Sensitization fold in the data set with USA300 LAC [2] (setting [13]) is recorded as 16; in the data set on USA300 LAC [2] (setting [14]) it was 8; in the data set on USA400 MW2 [3] (setting [13]), 16; in the data set with USA400 MW2 [3] (setting [14]) it was 8; in the data set with HS663 [4] (setting [13]), 64; in the data set on HS663 [4] (setting [14]) it was 8. Moreover, the Minimum sensitization concentration with USA300 LAC [2], in the data set with USA400 MW2 [3] and in the data set with HS663 [4] was 0.03 µg/mL in each case. Further, the values for the Maximum sensitization concentration in the data set with USA400 MW2 [3] and with HS663 [4] were 0.12 µg/mL and 0.25 µg/mL, respectively. Moreover, the “MIC of β-lactam, combined” value with USA400 MW2 [3] (setting [15]) came to 1 mg/L; with USA400 MW2 [3] (setting [16]), 2 mg/L; in the data set with HS663 [4] (setting [17]), 1 mg/L; in the data set with HS663 [4] (setting [18]) it was 8 mg/L. Also, the “inhibition of biofilm formation” value in data set [5] (0.125 μg/mL) is “near a half”. For the same molecule, the inhibition at 0.5 µg/mL in [5] (Staphylococcus aureus, USA300, read-out: inhibition of biofilm formation) is more than 90%. Besides, the “Clint In Vitro” value in [6] is reported as 1779 mL/min/gprot. Also, the “Comments (metabolic stability)” value in data set [6] is “poor”. In data set [6], this molecule had a half-life at 0.1 μM of 1.18 min. The MIC in the data set on USA300 LAC [7], against USA400 MW2 [8] and with HS663 [9] was more than 256 mg/L throughout.
Regarding `C[C@H]1[C@@H](c2cc(C(F)(F)F)cc(C(F)(F)F)c2)OC(=O)N1C(=O)CCN1CCOc2ccccc21` [Compound 11], the IC50 on TarO was 1.99 µM. Further, in the data set with USA300 LAC [2] (setting [13]), the FICI is reported as less than 0.07 and the Sensitization fold is 16. Also, the Sensitization fold with USA300 LAC [2] (setting [14]) was determined as 4. For the same molecule, the Minimum sensitization concentration with USA300 LAC [2] was 0.03 µg/mL.
On the same counts, the results for `C[C@H]1[C@@H](c2cc(C(F)(F)F)cc(C(F)(F)F)c2)OC(=O)N1C(=O)CCc1cccc2c1OCCC2=O` [Compound 14] are 4.04 µM, less than 0.08, 16, 8 and 0.25 µg/mL.
For the molecule `C[C@H]1[C@@H](c2cc(C(F)(F)F)cc(C(F)(F)F)c2)OC(=O)N1C(=O)CCn1ccc(=O)c2ccccc21` [Compound 17a], on TarO, the IC50 is 4.08 µM. Also, in the data set with USA300 LAC [2] (setting [13]), the FICI is recorded as less than 0.13 and the Sensitization fold was 1024. In the data set with USA300 LAC [2] (setting [14]), the FICI is on record as less than 0.15 and the Sensitization fold amounted to 8. For the same molecule, in the data set with USA300 LAC [2], the Minimum sensitization concentration turned out to be 4 µg/mL.
`COc1cc(C(F)(F)F)cc([C@H]2OC(=O)N(C(=O)CCn3ccc(=O)c4cccnc43)[C@H]2C)n1` [Compound 18b]: the half-maximal inhibitory concentration (IC50) on TarO was 12.3 µM. For the same molecule, the IC50 at 72 h in data set [1] (setting [10]), in data set [1] (setting [11]) and in [1] (setting [12]) was more than 20 µM each time. Further, the FICI is less than 0.19 with USA300 LAC [2] (setting [13]); less than 0.26 in the data set with USA300 LAC [2] (setting [14]); less than 0.16 in the data set on USA400 MW2 [3] (setting [13]); less than 0.08 with HS663 [4] (setting [13]); less than 0.51 in the data set on HS663 [4] (setting [14]). The Sensitization fold in the data set on USA300 LAC [2] (setting [13]) was found to be 16; in the data set on USA300 LAC [2] (setting [14]), 4; with USA400 MW2 [3] (setting [13]), 32; in the data set on USA400 MW2 [3] (setting [14]), 2; in the data set with HS663 [4] (setting [13]) it was 16; in the data set on HS663 [4] (setting [14]), 2. In addition, the Minimum sensitization concentration in the data set on USA300 LAC [2] turned out to be 0.25 µg/mL; with USA400 MW2 [3] it was 0.06 µg/mL; in the data set with HS663 [4], 0.12 µg/mL. Further, the Maximum sensitization concentration stood at 32 µg/mL with USA400 MW2 [3] and 2 µg/mL in the data set on HS663 [4]. For the same molecule, the “MIC of β-lactam, combined” value in the data set on USA400 MW2 [3] (setting [15]) was determined as 0.5 mg/L; in the data set on USA400 MW2 [3] (setting [16]), 8 mg/L; with HS663 [4] (setting [17]) it was 4 mg/L; in the data set with HS663 [4] (setting [18]) it was 32 mg/L. Besides, the “concentration (as low as) significantly reducing biofilm formation” value in data set [5] (USA300 LAC, 24 h static culture) amounted to 8 µg/mL. The “Clint In Vitro” value in data set [6] was 1267 mL/min/gprot. Moreover, the “Comments (metabolic stability)” value in [6] is given as “poor”. Also, the half-life at 0.1 μM in data set [6] came out at 1.66 min. The MIC in the data set on USA300 LAC [7], against USA400 MW2 [8] and in the data set on HS663 [9] was more than 256 mg/L in each case.
